Several values for one entry are separate records, joined by “and”; a condition that tells them apart may be missing. Identical values can stand only once.
Molecular target: T1, NS3 protease (dengue virus type 4, UniProt A0A0K0TQ36)
T1 sequence (A0A0K0TQ36 whole entry): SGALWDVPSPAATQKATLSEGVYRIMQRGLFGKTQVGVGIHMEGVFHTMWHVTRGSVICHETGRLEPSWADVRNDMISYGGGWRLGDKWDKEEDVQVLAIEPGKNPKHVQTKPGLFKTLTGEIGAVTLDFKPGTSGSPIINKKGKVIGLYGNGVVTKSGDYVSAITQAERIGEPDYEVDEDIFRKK
Test: Functional biochemical assay to identify treatments for viral infectious disease that targets Dengue virus type 4 NS2B-NS3 protease. Utilizing a direct enzyme activity measurement method, reading the fluorescence intensity is used to characterize the relative potency of inhibitors as IC50.
Set-up: species or system Philippines/H241/1956

| Compound | IC50 |
| --- | --- |
| CC(C)NC(=O)[C@H](Nc1ccc2c(c1)CNC2)c1cc(Cl)cc2[nH]ncc12 | 49.8 µM |
| O=C(Nc1ccc2c(c1)CNC2)c1cc(Br)cc2[nH]c(-c3ccccc3)nc12 | 2.96 µM |
| NCCc1csc2cc(C(=O)Nc3cc([C@H]4CCOC4)ccn3)ccc12 | > 99.5 µM |
| O=C(Nc1ccc2c(c1)CNC2)c1cccc2[nH]c(C(F)(F)F)cc12 | > 99.5 µM |
| N#Cc1cccc(-c2nc3c(C(=O)Nc4ccc5c(c4)CNC5)cc(F)cc3[nH]2)c1 | 2.86 µM |
| O=C(Nc1ccc2c(c1)CNC2)c1ccc2[nH]cc(C3CCNCC3)c2c1 | 36.7 µM |
| N#Cc1ccc(-c2nc3c(C(=O)Nc4ccc5c(c4)CNC5)cc(F)cc3[nH]2)cc1 | 1.92 µM |
| COc1cccc(-c2nc3c(C(=O)Nc4ccc5c(c4)CNC5)cc(F)cc3[nH]2)c1 | 5.32 µM |
| CC(C)c1nnc(-c2nc3c(C(=O)Nc4ccc5c(c4)CNC5)cc(F)cc3[nH]2)s1 | 9.86 µM |
| C=CC[C@H]1NCc2cc(NC(=O)c3cc(Cl)cc4[nH]ncc34)ccc21 | > 99.5 µM |
| NCc1cccc(-c2csc3cc(C(=O)Nc4ccc5c(c4)CNC5)ccc23)c1 | 43.7 µM |
| O=C(Nc1ccc2c(c1)CNC2)c1cc(F)cc2[nH]c(-c3cccc(F)c3)nc12 | 3.73 µM |
| N#Cc1cc2c(cc1NC(=O)c1cc(F)cc3[nH]ncc13)CNC2 | 36.9 µM |
| O=C(Nc1ccc2c(c1)CNC2)c1cc(Cl)cc2cc[nH]c12 | > 99.5 µM |
| Cc1cccc(-c2nc3c(C(=O)Nc4ccc5c(c4)CNC5)cc(F)cc3[nH]2)c1 | 5.9 µM |
| Cc1ccccc1-c1nc2c(C(=O)Nc3ccc4c(c3)CNC4)cc(F)cc2[nH]1 | 3.24 µM |
| O=C(Nc1ccc2c(c1)CNC2)c1ccc2c(C3=CCNCC3)csc2c1 | 70 µM |

| Compound | IC50 |
| --- | --- |
| O=C(Nc1ccc2c(c1)CNC2)c1cc(F)cc2[nH]c(-c3ccccc3F)nc12 | 5.23 µM |
| NCc1ccc(-c2csc3cc(C(=O)Nc4ccc5c(c4)CNC5)ccc23)cc1 | 53.2 µM |
| NCc1csc2cc(C(=O)Nc3ccc4c(c3)CNC4)ccc12 | 11.8 µM |
| Cn1c(=O)[nH]c2c(C(=O)Nc3ccc4c(c3)CNC4)cc(Br)cc21 | > 99.5 µM |
| O=C(Nc1ccc2c(c1)CNC2)c1cc(F)cc2c1CCC2 | > 99.5 µM |
| O=C(Nc1ccc2c(c1)CNC2)c1cccc2c(C3CNC3)n[nH]c12 | 32.2 µM |
| O=C(Nc1ccc2c(c1)CNC2)c1cc(Cl)cc(C(F)(F)F)n1 | 23 µM |
| O=C(Nc1ccc2c(c1)CNC2)c1cc(F)cc2[nH]c(-c3ccc(F)cc3)nc12 | 3.65 µM |
| O=C(Nc1ccc2c(c1)CNC2)c1cccc2nc(O)ccc12 | > 99.5 µM |
| COc1cc(-c2cc(NC(=O)c3cc(F)cc4[nH]ncc34)cc3c2CNC3)ccn1 | 42.5 µM |
| CC(C)(c1nc2c(C(=O)Nc3ccc4c(c3)CNC4)cc(F)cc2[nH]1)S(C)(=O)=O | 18 µM |
| O=C1Cc2cc(C(=O)Nc3ccc4c(c3)CNC4)ccc2N1 | 14 µM and 8.21 µM |
| NCCc1csc2cc(C(=O)Nc3ccc4c(c3)CNC4)ccc12 | > 99.5 µM |
| O=C(Nc1ccc2c(c1)CNC2)c1cccc2cn[nH]c12 | 45 µM |
| O=C(Nc1ccc2c(c1)CNC2)c1ccc2[nH]ccc2c1 | > 99.5 µM |
| O=C(Nc1cc2c(c(C3=CCS(=O)(=O)CC3)c1)CNC2)c1cc(F)cc2[nH]ncc12 | 50 µM |
| O=C(Nc1cc2c(c(C3=CCOCC3)c1)CNC2)c1cc(F)cc2[nH]ncc12 | 29.9 µM |
